Each molecule was assayed on mESC Bmi1-luciferase reporter, firefly/renilla ratio, 24 h (assay: compounds raising Bmi1 reporter signal – mouse embryonic stem cells, luciferase, cherry-pick, esBAF inhibitor project, dose response (AID 651717);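 further: luciferase knocked into Bmi1 locus with EF-1a renilla as cell number control; rising ratio signals esBAF inhibition which derepresses Bmi1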).

SMILES | AC40
COc1ccc(NC(=O)Nc2cccc(C)n2)cc1 | 3.45 µM
Cc1ccc2c(CN(C)Cc3cccc(F)c3)cc(=O)oc2c1 | 2.23 µM
Cc1ccc(NCSc2ccc(Cl)cc2)cc1 | 1.66 µM
COc1ccc(-n2nc(C(=O)NCC(=O)N3CCCC3)c3ccccc3c2=O)cc1Cl | 20.9 µM
CCCc1cc(C(=O)Nc2cc(Br)ccc2O)no1 | 8.53 µM
O=C(Nc1ccc(N2CCCC2)cc1)c1cccc(Cl)c1Cl | 28.2 µM
COc1ccc(-c2ccc(OC)cc2)cc1 | 4.64 µM
CSc1ccc(/C=N/NC(=O)c2ccccc2Cl)cc1 | 6.47 µM
c1ccc2nc3c(ccc4ccccc43)cc2c1 | 0.939 µM
COc1cc(/C=C2/C(=N)N3N=C(CC(=O)N4CCOCC4)SC3=NC2=O)ccc1OCc1ccc(F)cc1 | 3.4 µM
N/C(=N\OC(=O)c1cccnc1)c1ccccc1Cl | 23.6 µM
CSc1ccccc1NC(=O)c1cc(C(C)C)on1 | 3.11 µM
O=C(NOCc1ccccc1)OCc1ccccc1 | 4.39 µM
NC(=O)c1ccc(CSc2nc3ccccc3s2)cc1 | 4.64 µM
CCCn1cnc2cc(NCc3ccccc3O)ccc21 | 17.2 µM
C/C(=N\OCc1ccc(C#N)cc1)c1ccc(S(=O)(=O)N(C)C)cc1 | 7.91 µM
N#CCc1nc(CSc2nc3ccccc3o2)cs1 | 12.3 µM
COc1cc2ccccc2cc1C(=O)Nc1ccc(Br)cn1 | 0.489 µM
C#CCn1cccc(C(=O)Nc2ccc(OC)cc2)c1=O | 10.7 µM
CCN(CC)C(=O)OCc1c(-c2ccccc2)ncc2ccccc12 | 2.25 µM
CC(=O)Nc1ccc(CNc2nc3cc(-c4ccsc4)sc3c(=O)n2C)cc1 | 6.16 µM
COc1ccc(CCC(=O)N2CCc3ccccc32)cc1 | 5.22 µM
CCc1sc(C(=O)Nc2ccc3nc(C)sc3c2)cc1C | 4.74 µM
Cc1ccc(Nc2cccccc2=O)cc1 | 3.88 µM
COc1ccc(-n2nc(C(=O)NCC(=O)N3CCN(c4ccccc4F)CC3)c3ccccc3c2=O)cc1 | 1.22 µM

SMILES | AC40
Cc1ccc(C(=O)NCCc2nnc(SCC(=O)Nc3nc(-c4ccccc4)cs3)n2C)cc1 | 17.2 µM
CCCC1CCC(c2nc(-c3cccnc3)no2)CC1 (centres undefined) | 2.04 µM
CCc1nnc(NC(=O)c2ccc3c(=O)n4c(nc3c2)CCC4)s1 | 2.51 µM
CC(=O)Nc1ccc2nc(C)n(Cc3ccc(Cl)cc3)c(=O)c2c1 | 4.21 µM
COc1cc2ccccc2cc1C(=O)NC1CCC(C)CC1 (centres undefined) | 8.67 µM
Cc1cccc(N2C(=O)CC(N(O)c3ccccc3)C2=O)c1 (centres undefined) | 28.4 µM
COc1ccc(-c2cc(C(=O)Nc3ccc(C(N)=O)cc3)c3ccccc3n2)cc1 | 4.1 µM
C#CCN(CC=C)C(=O)CCc1nnc(COc2ccccc2)o1 | 22.4 µM
OCc1c(OCc2cccc(F)c2)ccc2ccccc12 | 7.24 µM
O=C(Nc1ccccc1)c1cc(C2CCCN(C(=O)CCc3ccccc3)C2)on1 (centres undefined) | 5.03 µM
Clc1ccc(-c2nc(Cc3ccccc3)no2)cc1 | 1.85 µM
Cc1cc(Br)ccc1OCc1nc(-c2cccnc2)no1 | 9.06 µM
CC(C)c1ccc(C(O)c2cnc(C(C)C)n2C)cc1 (centres undefined) | 4.11 µM
Cc1ccc(OCc2cnc(Cl)s2)c(C)c1 | 4.12 µM
O=C(CC(=O)c1ccccc1)c1ccccc1 | 2.47 µM
COc1cc(C2Nc3cc(Cl)c(S(N)(=O)=O)cc3S(=O)(=O)N2)ccc1OCc1ccccc1 (centres undefined) | 3.48 µM
N#Cc1nc(COc2ccccc2)oc1N1CCCCC1 | 15.6 µM
Cc1cc2oc(=O)cc(CN3CCC(C)CC3)c2cc1Cl | 9.54 µM
O=C(c1csc(Nc2ccccc2Cl)n1)N1CCCC1 | 1.07 µM
COc1ccc(CNC(=O)c2ccc3ccccc3n2)cc1 | 29.4 µM
Nc1n[nH]c(N)c1N=Nc1ccc(Cl)cc1 | 6.31 µM
O/N=C\c1cnc(N2CCN(c3ccccc3)CC2)s1 | 2.47 µM
COc1ccc(-c2cc([C@H]3[C@H]4C=CC[C@@H](C)[C@@H]4C(=O)N3Cc3ccccc3)ccc2F)cc1OC | 17.8 µM
CO[C@H]1CN(C)C(=O)c2cc(NC(=O)Nc3ccc4c(c3)OCO4)ccc2OC[C@@H](C)NC[C@H]1C | 8.26 µM
Clc1ccc(-c2nc3ccc(Cl)cn3c2Cc2ccsc2)cc1 | 9.87 µM

SMILES | AC40
COc1cccc2sc(NC(=O)c3ccc(Br)s3)nc12 | 1.85 µM
Cc1csc(=O)n1CC(=O)OCc1cccc2ccccc12 | 11.4 µM
CCCC1c2ccc(C)n2CCN1C(=O)Nc1ccccc1Cl (centres undefined) | 6.07 µM
COc1ccc2oc3cc(Cl)ccc3c(=O)c2c1 | 2.85 µM
Cc1ccc(NC(=O)Nc2cccc(C)n2)c(C)c1 | 6.01 µM
Nc1cc2c3ccccc3ccc2c2ccccc12 | 2.47 µM
Cc1ccc(NC(=O)c2ccc3c(=O)n4c(nc3c2)CCC4)cc1F | 0.945 µM
Oc1ccc(Cl)cc1C=NN1CCCCCC1 | 1.37 µM
Brc1ccccc1-c1nnc(-c2cccnc2)o1 | 6.08 µM
Cc1ccc(O)c(NC(=O)c2ccc3c(c2)C(=O)N(CC(C)C)C3=O)c1 | 1.23 µM
CCN1C(=O)C(=CC=CN(C)c2ccccc2)SC1=S | 0.466 µM
Cn1c(CSc2ccccc2)c(C#N)c2ccccc21 | 6.77 µM
Cc1nc2c(sc3nc4c(cc32)COC(C)(C)C4)c(=O)n1Cc1ccccc1 | 1.18 µM
O=C(CC(NC(=O)OCc1ccccc1)c1nn[nH]n1)OCc1ccccc1 (centres undefined) | 2.6 µM
COc1cc2[nH]c(C(=O)N3CCc4ccccc43)cc2c(OC)c1OC | 2.77 µM
Cc1cccc(NC(=O)CCCc2ccccc2)c1 | 9.57 µM
N#Cc1ccc(Nc2nc(-c3ccccc3)cs2)cc1 | 3.97 µM
CCCCNc1ccc2c(c1)C1CC2CCN1C(=O)OCc1ccccc1 (centres undefined) | 4.73 µM
COc1ccccc1CNC(=O)C[C@H]1CC[C@H]2[C@@H](COC[C@@H](O)CN2C(=O)Nc2ccc(Cl)cc2)O1 | 1.05 µM
O=C(CC1CCCC1)Nc1ccc(Br)cc1 | 16 µM
O=C(NCc1ccc2c(c1)OCO2)Nc1cccc(Cl)c1 | 7.4 µM
COc1ccc(-c2csc(Nc3cccc(C)n3)n2)cc1OC | 1.44 µM
Clc1ccc(-c2cn3cccnc3n2)cc1Cl | 3.56 µM
O=C(Nc1ccc(F)c(Cl)c1)c1cc(C2CCCN(C(=O)C3CC3)C2)on1 (centres undefined) | < 0.26 µM
Fc1ccc2nc(-c3ccccc3)ccc2c1 | 1.14 µM

SMILES | AC40
Cc1ccc(SCCN2CCC(C)CCC2=O)cc1 (centres undefined) | 2.74 µM
Clc1ccc(-n2nnc(-c3ncc[nH]3)n2)cc1Cl | 11.6 µM
N/C(=N\OC(=O)CC1CCCCC1)c1ccccn1 | 3.84 µM
OC(c1ccc(F)cc1)c1ncc(-c2ccc3ccccc3c2)[nH]1 (centres undefined) | 10.9 µM
COc1ccc2[nH]c(=O)c(CNc3cccc(C)c3)cc2c1 | 12.9 µM
NC(N)=NC(=O)c1nc(Cl)c(N2CCCCCC2)nc1N | 3.13 µM
Cc1cc(N2CCOCC2)nc2ccc(NC(=O)CCC(=O)N3CCN(c4ccccc4F)CC3)cc12 | 4.59 µM
CN(C)c1ccc(-c2ccc3oc(-c4ccsc4)cc(=O)c3c2)cn1 | 2.73 µM
CO[C@H]1CN(C)C(=O)c2cc(NC(=O)NC(C)C)ccc2OC[C@@H](C)N(Cc2ccc(-c3ccccn3)cc2)C[C@@H]1C | 22.6 µM
Oc1cccc(C=NNc2ccccn2)c1 | 5.37 µM
Cc1ccc(NCC(=O)N/N=C/c2cc3ccccc3nc2Cl)cc1 | 30.6 µM
O=C(O)CCc1ccc(-c2ccc(Br)cc2)n1-c1cccc(O)c1 | 10.8 µM
CNc1cnc(-c2ccc(F)c(F)c2F)cn1 | 1.54 µM
O=C(O)c1ccc(N/N=C/c2cccc3nccnc23)cc1 | 4.04 µM
O=C(Nc1ccccn1)c1ccc(Cl)c(S(=O)(=O)N2CCCCCC2)c1 | 10.4 µM
COC(=O)C(Cc1c[nH]c2ccccc12)NC(=O)c1ccc2nc[nH]c2c1 (centres undefined) | 14.7 µM
Cc1ccc(-c2noc(-c3ccccc3C(=O)N3CCN(C)CC3)n2)cc1 | 11.5 µM
CC1(C)CNC(=O)c2sc(NC(=O)c3ccccc3)nc2C1 | 4.76 µM
Cc1cc(C)cc(N(CC(=O)Nc2ccc(-c3nc4ccc(C)cc4s3)cc2)S(C)(=O)=O)c1 | 4.11 µM
COC(=O)CN(C)C(=O)c1ccc2nc(Cc3cccc(Cl)c3)oc2c1 | 2.4 µM
O=C(Nc1ccc(-c2cnco2)cc1)c1ccc(F)cc1F | 4.28 µM
COc1ccc(OCc2cc(C(=O)N(Cc3nccn3C)C(C)C)no2)c2ccccc12 | 3.93 µM
Clc1cccc2sc(N3CCCCC3)nc12 | 5.75 µM
CC(C)c1ccc(CNNC(=O)c2ccccc2)cc1 | 2.18 µM
COc1ccc(-c2noc(CCCC(=O)N3CCN(c4cc(C)ccc4C)CC3)n2)cc1 | 3.53 µM

SMILES | AC40
CC(c1ccccc1)c1nnc(NC(=O)Nc2ccccc2F)s1 (centres undefined) | 6.51 µM
C=CCn1c(=O)c(C(=O)Nc2ccc(C)cc2)c(O)c2ccccc21 | 13.1 µM
Fc1cccc(Cl)c1/C=N/Nc1ccccn1 | 8.55 µM
COc1ccc(NC(=O)c2cc(-c3ccccc3Cl)on2)cc1 | 11.8 µM
CN(Cc1nccs1)C(=O)c1ccc2nc(Cc3ccccc3F)oc2c1 | 0.952 µM
COCOCCn1cc(CN2CCS(=O)(=O)N(Cc3ccc(-c4ccc(Cl)nc4)cc3)C(CC(C)C)C2=O)nn1 (centres undefined) | 34.2 µM
COc1ccc(C2CC2/C(=N/OC(=O)c2cccs2)c2ccccc2)cc1 (centres undefined) | 2.9 µM
COC(=O)c1ccc(COC(=O)c2ccc(SC)cc2OC)cc1 | 8.51 µM
CCCCCn1c(=O)c(C(=O)Nc2ccccc2Cl)c(O)c2ccccc21 | 5.14 µM
CCC(C)NC(=O)c1cc(-c2ccccc2O)on1 (centres undefined) | 11.1 µM
Cc1ccn2c(CC(C)(C)C)c(-c3ccc(F)cc3)nc2c1 | 1.38 µM
COc1cccc(Nc2cc(C)c3ccccc3n2)c1 | 6.06 µM
O=C(c1cc2c(s1)-c1ccccc1OC2)N1CCCC1 | 1.71 µM
c1ccc(C2Oc3ccccc3C3CC(c4cccs4)=NN32)cc1 (centres undefined) | 8.04 µM
CCC(=O)Nc1cccc(-c2nnc(-c3ccccc3)o2)c1 | 2.83 µM
COC(=O)c1c(-c2ccc(SC)cc2)sc2ccc(OC)cc12 | 0.613 µM
COc1ccccc1C(=O)Oc1ccccc1C(=O)Nc1ccccc1 | 5.18 µM
COc1cc(C(=O)Oc2ccccc2/C=N/NC(=O)c2ccc(Cl)cc2Cl)cc(OC)c1OC | 1.1 µM
COc1ccc(-c2cc(C(=O)N3CCN(c4ccccc4)CC3)no2)cc1 | 5.94 µM
CCS(=O)(=O)n1nc(-c2ccc(OC)cc2)nc1SC | 5.54 µM
Cn1c2nc3ccccc3c-2nc2ccccc21 | 4.33 µM
CCN(C(=O)c1cc2c(=O)n3ccccc3nc2s1)C1CCCCC1 | 14 µM
Cc1ccnc(NC(=O)c2ccc(Cl)c(S(=O)(=O)N3CCCCC3)c2)c1 | 11.7 µM
Oc1ccc(-c2cccc(-c3ccc(O)cc3)c2)cc1 | 6.78 µM
